In one test the target is Albumin (Bos taurus, UniProt P02769). The test is described as follows: Counterscreen for inhibitors of T-cell receptor (TCR)-CD3 interaction: Fluorescence-based biochemical high throughput dose response assay to identify inhibitors of T-cell receptor (TCR)-CD3 interaction using a TAMRA-labeled BSA probe. The class given is functional. A general note: Counterscreens check selectivity or assay interference.

In test [1] the target is Glutathione-S-transferase (Schistosoma japonicum, UniProt Q26513). The test is described as follows: GST-antibody interaction or FRET quenching – biochemical, TR-FRET, artefact control for Vif-APOBEC3G degradation inhibitor project, dose response (AID 1117362). The class given is functional. (In TR-FRET formats the signal depends on donor and acceptor labels being close together.)

A further test concerns the target Troponin, cardiac muscle (Homo sapiens, UniProt P19429+P45379+P63316). The test is described as follows: compounds desensitizing RTF to calcium – biochemical, fluorescence, cardiac regulated thin filaments, triplicate IC50, dose response (AID 504742). Type of test: protein-complex assay.
Test [2] deals with T1, Ubiquitin-conjugating enzyme E2 N (Homo sapiens, UniProt P61088).
T1 sequence (P61088 whole entry): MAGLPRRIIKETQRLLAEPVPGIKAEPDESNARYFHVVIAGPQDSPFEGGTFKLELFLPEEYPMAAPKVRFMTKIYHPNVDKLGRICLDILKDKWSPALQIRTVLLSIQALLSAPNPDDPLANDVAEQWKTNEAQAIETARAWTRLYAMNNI
The class given is functional.

The target of test [3] is T2, Dual specificity protein phosphatase 6 (Rattus norvegicus, UniProt Q64346).
T2 sequence (Q64346 whole entry): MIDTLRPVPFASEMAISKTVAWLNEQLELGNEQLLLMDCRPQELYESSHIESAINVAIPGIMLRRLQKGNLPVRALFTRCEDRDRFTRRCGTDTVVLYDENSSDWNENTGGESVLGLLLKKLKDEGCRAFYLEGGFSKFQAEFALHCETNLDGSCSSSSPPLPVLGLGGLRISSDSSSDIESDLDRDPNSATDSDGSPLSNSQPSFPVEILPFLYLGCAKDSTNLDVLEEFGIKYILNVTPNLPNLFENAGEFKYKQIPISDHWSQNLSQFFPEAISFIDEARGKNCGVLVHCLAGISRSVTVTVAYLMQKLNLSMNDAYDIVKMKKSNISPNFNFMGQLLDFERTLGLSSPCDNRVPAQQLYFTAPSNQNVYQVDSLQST
The test is described as follows: inhibition of rat DUSP6 enzyme activity – biochemical, in vitro, primary screen (AID 425).

Another test concerns the target Large T antigen (Simian virus 40, UniProt P03070). The class given is functional, Betapolyomavirus macacae.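 Further: Confirmatory-stage PubChem screen for compounds that inhibit SV40 T antigen.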
For test [4], the target named is Eukaryotic translation initiation factor 4E (Mus musculus, UniProt P63073). The test is described as follows: blockers of eIF4G binding by eIF4E – biochemical, TR-FRET, dose response (AID 855).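 Further: potency for disrupting eIF4E binding to eIF4GI seen as loss of FRET.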 The class given is functional.
Test [5] concerns the target T2, Dual specificity protein phosphatase 6.
Test [6] has as its target Runt-related transcription factor 1/Core-binding factor subunit beta (Homo sapiens, UniProt Q01196+Q13951). The test is described as follows: disruptors of Runt domain/CBFb-SMMHC interaction – biochemical, FRET, Cerulean-Runt, Venus-CBFb-SMMHC, uHTS, […] (AID 1434). The class given is protein assay.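 Further: partner is the CBFb-SMMHC leukemia fusion protein rather than wild-type CBFb.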
Test [7] can be described thus: HEK-293T viability loss after treatment – luminescence, T-cell screen hits, cytotoxicity control for TCR NF-kB inhibitor project, dose response (AID 489026).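 Further: cells exposed to compound about 14 hours before the viability readout.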 The class given is functional, cell-based.
Test [8] has as its target C-C chemokine receptor type 6 (Homo sapiens, UniProt P51684). Description: antagonism of CCR6 beta-arrestin recruitment – cell-based, luminescent beta-arrestin readout, dose response (AID 504728). Type of test: functional.
Test [9] deals with Interleukin-1 receptor-associated kinase 4 (Homo sapiens, UniProt Q9NWZ3). Type of test: functional.
Another test addresses Ephrin type-A receptor 2 (Homo sapiens, UniProt P29317). Type of test: functional.
Test [10] concerns the target Tyrosine-protein kinase Blk (Homo sapiens, UniProt P51451). The class given is functional.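 Further: obtained as one member of a kinome-wide kinase assay panel.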
Test [11] has as its target Rho-associated protein kinase 2 (Homo sapiens, UniProt O75116). Type of test: functional.
Test [12] deals with Homeodomain-interacting protein kinase 4 (Homo sapiens, UniProt Q8NE63). The class given is functional.
Test [13] addresses Serine/threonine-protein kinase PLK4 (Homo sapiens, UniProt O00444). The class given is functional.
Test [14] has as its target Calcium/calmodulin-dependent protein kinase type II subunit beta (Homo sapiens, UniProt Q13554). The class given is functional.
The target in test [15] is Maternal embryonic leucine zipper kinase (Homo sapiens, UniProt Q14680). The class given is functional.
The target of test [16] is Tyrosine-protein kinase Fer (Homo sapiens, UniProt P16591). Type of test: functional.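 Further: FER tested as one member of a kinome panel.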
For test [17], the target named is Tyrosine-protein kinase Lyn (Homo sapiens, UniProt P07948). Type of test: functional.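 Further: lyn as one member of a kinase panel.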
Test [18] concerns the target Fibroblast growth factor receptor 1 (Homo sapiens, UniProt P11362). The class given is functional.
The target of test [19] is Vascular endothelial growth factor receptor 1 (Homo sapiens, UniProt P17948). Type of test: functional.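 Further: measured within a kinome-wide profiling panel, FLT1 as the panel member.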
The target in test [20] is Dual specificity mitogen-activated protein kinase kinase 2 (Homo sapiens, UniProt P36507). Description: Navigating the Kinome. Panel member name: MAP2K2. The class given is functional.
The target in test [21] is Ribosomal protein S6 kinase alpha-3 (Homo sapiens, UniProt P51812). The class given is functional.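 Further: measured within a kinome-wide profiling panel.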
Test [22] concerns the target 5'-AMP-activated protein kinase catalytic subunit alpha-1 (Homo sapiens, UniProt Q13131). Type of test: functional.
For test [23], the target named is T3, Alkaline phosphatase, tissue-nonspecific isozyme (Homo sapiens, UniProt P05186).
T3 sequence (P05186 whole entry): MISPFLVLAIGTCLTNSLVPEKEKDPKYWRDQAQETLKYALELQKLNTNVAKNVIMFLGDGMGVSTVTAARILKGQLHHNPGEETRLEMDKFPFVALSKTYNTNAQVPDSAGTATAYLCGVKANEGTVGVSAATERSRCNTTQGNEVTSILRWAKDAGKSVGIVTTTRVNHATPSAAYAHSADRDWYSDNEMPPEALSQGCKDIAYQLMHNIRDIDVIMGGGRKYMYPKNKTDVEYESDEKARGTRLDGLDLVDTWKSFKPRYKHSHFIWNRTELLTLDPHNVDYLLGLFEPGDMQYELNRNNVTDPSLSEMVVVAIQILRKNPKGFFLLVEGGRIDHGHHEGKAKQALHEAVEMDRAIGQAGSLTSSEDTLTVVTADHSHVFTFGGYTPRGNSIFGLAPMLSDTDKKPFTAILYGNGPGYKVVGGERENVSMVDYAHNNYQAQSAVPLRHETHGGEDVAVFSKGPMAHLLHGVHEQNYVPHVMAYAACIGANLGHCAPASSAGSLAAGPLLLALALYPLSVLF
The test is described as follows: TNAP enzyme inhibition by screening hits, dose response, selectivity assay for mouse IAP inhibitor project, biochemical, human TNAP, uHTS hits (AID 488906). Type of test: functional.

The structures appear in SMILES notation. Activity calls are given as the source filed them. A value given as a limit tells only on which side of the number the result lay.

As usually defined, the IC50 is the concentration that inhibits the measured activity by half. As to `Cc1cc([N+](=O)[O-])cc(/C=N\NC(=O)C2COc3ccccc3O2)c1O` (configuration not stated), the IC50 at Albumin was > 94.2 µM (inactive).

`COc1cccc2c1NC(C(=O)O)C1CC=CC21` (configuration not stated): the IC50 was > 100 µM (active) in [1]; 27.7 µM (inactive) at Troponin, cardiac muscle; 19.1 µM (active) in test [2]; > 10 µM (not active) in [3]; 42.5 µM (active) on Large T antigen; 12.8 µM (active) in test [4]. The IC50 in test [5] was 14 µM (active); in test [6], > 100 µM (inactive).

On to `CCc1ccc(S(=O)(=O)/N=C2\C=C(Nc3ccc(O)cc3)C(=O)c3ccccc32)cc1`, for which the IC50 in test [7] was 3.96 µM (active); in test [8], > 66.6 µM (inactive).

As a reminder, the Ki is the dissociation constant of the complex between target and ligand, obtained from inhibition or displacement. What is called pKi is the Ki on a negative log10 scale, so that one unit is a factor of ten. Take `Cc1ccc(F)c(NC(=O)Nc2ccc(-c3cccc4[nH]nc(N)c34)cc2)c1` [LINIFANIB]: the Ki in test [9] was 2.51 µM (active); at Ephrin type-A receptor 2 it was 2.51 µM (active); in test [10] it was 0.316 µM (active); in [12] it was 0.0398 µM (active); in [13], 0.631 µM (active); in test [14], 3.98 µM (active). Also, the Ki in test [15] was 2 µM (active); in test [16] it was 0.501 µM (active); in test [17], 0.251 µM (active). The molecule also came in with a pKi in test [11] of 5.6.

For `COc1c(-c2nc3ccccc3[nH]2)c(O)cc2oc(C)cc(=O)c12`, the Ki in test [18] was 0.501 µM (active); in test [19], 2 µM (active); in [20], 0.398 µM (active); in test [21], 0.794 µM (active); in [22], 0.794 µM (active).

In the case of `O=C1/C(=C\c2cccc(O)c2O)SC(=S)N1Cc1ccccc1`, the IC50 in test [23] is > 100 µM (inactive).

For the origin of these results see ChEMBL document CHEMBL1201862, “PubChem BioAssay data set” (2004).
